O=C1OC[C@H]2[C@@H]1N(Cc1ccccc1)C(=O)N2Cc1ccccc1
Settings | solubility (mole fraction)
in DMF, 293.15 K | 0.15
in DMF, 298.15 K | 0.163
in DMF, 303.15 K | 0.179
in DMF, 308.15 K | 0.196
in DMF, 312.65 K | 0.211
in DMF, 316.05 K | 0.224
in DMF, 320.35 K | 0.242
in THF, 293.35 K | 0.074
in THF, 298.15 K | 0.0845
in THF, 303.15 K | 0.0971
in THF, 308.15 K | 0.111
in THF, 313.05 K | 0.126
in THF, 318.15 K | 0.142
in THF, 323.25 K | 0.165
in dichloromethane, 293.25 K | 0.121
in dichloromethane, 296.45 K | 0.127
in dichloromethane, 299.35 K | 0.132
in dichloromethane, 302.25 K | 0.138
in dichloromethane, 305.45 K | 0.144
in dichloromethane, 308.15 K | 0.149
in dichloromethane, 311.35 K | 0.155
in ethyl acetate, 293.65 K | 0.0221
in ethyl acetate, 298.35 K | 0.0271
in ethyl acetate, 304.15 K | 0.0332
in ethyl acetate, 308.25 K | 0.0391
in ethyl acetate, 314.15 K | 0.0487
in ethyl acetate, 318.15 K | 0.0576
in ethyl acetate, 323.75 K | 0.0716
in methanol, 287.15 K | 0.0034
in methanol, 293.15 K | 0.0049
in methanol, 298.15 K | 0.0067
in methanol, 303.25 K | 0.0088
in methanol, 308.05 K | 0.0119
in methanol, 313.45 K | 0.016
in methanol, 318.15 K | 0.0211
in toluene, 291.15 K | 0.0073
in toluene, 298.15 K | 0.0101
in toluene, 303.05 K | 0.0125
in toluene, 308.65 K | 0.0157
in toluene, 313.25 K | 0.0197
in toluene, 317.95 K | 0.0242
in toluene, 323.75 K | 0.0316
